Assay results as given in PubChem BioAssay AID651703 (Broad Institute, 2012).
Several values for one entry are separate records, joined by “and”; a condition that tells them apart may be missing. Equal values may be shown once.

The molecules below were run against Transforming acidic coiled-coil-containing protein 3 (Homo sapiens) (UniProt Q9Y6A5) (assay: inhibition of ARNT PAS-B/TACC3 complex formation – biochemical, AlphaScreen, cherry-picked samples, confirmation (AID 651703;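 also: TACC3 partner is the GST-tagged E629A mutant dimer; hits lower the signal meaning they disrupt ARNT binding to TACC3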)). Conditions: AlphaScreen His-ARNT PAS-B / GST-TACC3 binding, luminescence.

| AC50 | Structure (SMILES) |
| --- | --- |
| 6.22 µM | CC(=O)[C@H]1[C@@H]2C(=O)N(c3cccc(Cl)c3)C(=O)[C@@H]2[C@H]2c3ccccc3C=CN21 |
| 6.64 µM | CC1(c2ccccc2)NC(=O)N(CC(=O)Nc2nc(-c3ccccn3)cs2)C1=O (stereo not drawn) |
| 5.76 µM | CC(=O)NC(c1ccco1)c1cc(F)c2cccnc2c1O (stereo not drawn) |
| 5.15 µM | O=C(CN1C(=O)C2CCCCC2C1=O)Nc1nc(-c2ccccn2)cs1 (stereo not drawn) |
| 17.7 µM | O=C(CSc1nnc(-c2cccnc2)o1)Nc1nccs1 |
| 67.4 µM | O=C(C1CCCC1)N1C[C@@H]2[C@H](c3ccccc31)[C@H](CO)N2C(=O)Cc1ccccn1 |
| 2.05 µM | O=C(CN1CC(=O)Oc2ccccc21)NCc1ccco1 |
| 10.2 µM | O=C(N[C@@H]1CC[C@@H](CCn2cc(-c3ccccn3)nn2)O[C@H]1CO)c1ccc(F)cc1 |
| 16 µM | O=C(COC(=O)c1cccc(O)c1)Nc1nnc(-c2ccccc2)o1 |
| < 0.5 µM | c1ccc(-c2nnc(-c3ccccn3)nc2NCCc2ccccn2)cc1 |
| < 0.5 µM | c1ccc(-c2n[nH]c(-c3ccccn3)n2)nc1 |
| 4.77 µM | O=C(N/N=C/c1cccc2nccnc12)c1ccccc1O |
| 63.9 µM | O=C(Nc1nccs1)c1cnccn1 |
| 9.6 µM | Cc1cc(NC(=O)CC(C)C)c(=O)n(Cc2ccccc2F)c1 |
| 31.1 µM | COc1cc(OC)cc(C(=O)Oc2c(CN3CCOCC3)cc(Cl)c3cccnc23)c1 |
| 1.14 µM | COCc1cc(CN2CCN(C)CC2)c(O)c2ncccc12 |
| 0.706 µM | O=C(CSc1n[nH]c(-c2ccccn2)n1)Nc1ccccc1 |
| 16.3 µM | CC(=O)Nc1cccc(C(=O)OCC(=O)Nc2nnc(-c3ccccc3)o2)c1 |
| 3.28 µM | O=C(CSc1cccc2cccnc12)N1CCCC1 |
| 23.9 µM | CCC(COC)Oc1cc(NCc2ccccc2)c2ncn(C(C)C)c2c1 (stereo not drawn) |
| 3.13 µM | COc1ccc(C(=O)Nc2nc(-c3ccccn3)cs2)cc1S(=O)(=O)N1CCOCC1 |
| 3.96 µM | O=C(CN1C(=O)COc2ccccc21)Nc1ccc(F)cc1 |
| 2.6 µM | Nc1nc(-c2ccccn2)nc(N)c1Cc1ccc(Cl)cc1Cl |

| AC50 | Structure (SMILES) |
| --- | --- |
| 5.13 µM | O=[N+]([O-])c1cc(Cl)cc(/C=N\Nc2ccccn2)c1O |
| 39.7 µM | CC1=C(SCc2ccccc2)C(=O)c2ccccc2C1=O |
| 3.6 µM | Cc1c(NC(=O)CSc2cccc3cccnc23)c(=O)n(-c2ccccc2)n1C |
| 21 µM | CNCc1cn2cc(Cl)ccc2n1 |
| 31.6 µM | Cc1ccccc1CS(=O)(=O)Cc1ccc(C(=O)NCc2ccccn2)o1 |
| 59.6 µM | O=C(NC[C@@H]1[C@H](c2ccccc2)[C@H](CO)N1Cc1ccccn1)C1CC1 |
| 3.5 µM | Cc1cc(C(=O)N/N=C/c2c(CO)cnc(C)c2O)c2ccccc2n1 |
| 7.02 µM | CC(=O)Nc1ccc(Oc2nc(-c3ccccn3)nc3ccccc23)cc1 |
| 4.97 µM | O=C(Cn1cnc([N+](=O)[O-])n1)N/N=C/c1ccc(O)cc1O |
| 64.9 µM | c1ccc(C2=Nn3c(nnc3-c3ccccn3)SC2)cc1 |
| 43 µM | O=C(CSc1n[nH]c(=O)[nH]c1=O)N/N=C/c1ccccc1O |
| 7.1 µM | CO[C@@H]1CN(C)C(=O)c2ccc(NC(=O)c3ccccn3)cc2OC[C@@H](C)N(Cc2ccccn2)C[C@H]1C |
| 47.9 µM | CN(Cc1ccccc1)CC(O)COc1ccc(CNCc2nccn2C)cc1 (stereo not drawn) |
| 7.36 µM | N#CC1=C(N)Oc2c(ccc3cccnc23)C1c1cccnc1 (stereo not drawn) |
| 4.37 µM | CCc1ccc(NC(=O)CSc2ccc(-c3ccccn3)nn2)cc1 |
| 20 µM | CCN(C(=O)Cc1nc(N)n[nH]1)C1(C(=O)Nc2ccccc2)CCCCC1 |
| 3.93 µM | FC(F)(F)c1cnc(C(c2ccccn2)c2ncn[nH]2)c(Cl)c1 (stereo not drawn) |
| 4.63 µM | Nc1nnc2c(n1)CCCC2 |
| 3.27 µM | Oc1ccc(Br)cc1/C=N/Nc1ccccn1 |
| 24.8 µM | O=C(N[C@H]1CC[C@H](CCn2cc(-c3ccccn3)nn2)O[C@H]1CO)c1cccnc1 |
| 9.19 µM | O=C(N[C@H]1CC[C@@H](CCn2cc(-c3ccccn3)nn2)O[C@@H]1CO)c1cccnc1 |
| 6.44 µM | CC(C)(C)C1=Nn2c(nnc2-c2ccccn2)SC1 |
| 47.3 µM | C[C@H]1CN([C@@H](C)CO)C(=O)Cc2cc(NC(=O)Nc3cccc4ccccc34)ccc2O[C@@H]1CN(C)Cc1ccc(Oc2ccccc2)cc1 |

| AC50 | Structure (SMILES) |
| --- | --- |
| 14.8 µM | O=C(N[C@H]1CC[C@@H](CCn2cc(-c3ccccn3)nn2)O[C@@H]1CO)c1ccc(F)cc1 |
| 10.3 µM | O=C(N[C@@H]1CC[C@@H](CCn2cc(-c3ccccn3)nn2)O[C@@H]1CO)c1ccncc1 |
| 3.14 µM | Cc1csc(NC(=O)CSc2ccc(-c3ccccn3)nn2)n1 |
| 8.21 µM | CCCC(=O)NC(c1ccco1)c1cc([N+](=O)[O-])c2cccnc2c1O (stereo not drawn) |
| 45.9 µM | C/C=C/c1ccc([C@H]2[C@@H](CO)N(Cc3ccccn3)[C@H]2CNC(C)=O)cc1 |
| 40.7 µM | O=C(NC[C@@H]1[C@H](c2ccccc2)[C@H](CO)N1Cc1ccccn1)C1CCCC1 |
| 2.28 µM | c1ccc(-c2cccc(CNc3nc(-c4ccccn4)nnc3-c3ccccc3)c2)cc1 |
| 9.17 µM | NNc1ccc(S(=O)(=O)N2CCCCC2)cn1 |
| 9.74 µM | O=C(N[C@H]1CC[C@H](CCn2cc(-c3ccccn3)nn2)O[C@@H]1CO)c1cccnc1 |
| 0.669 µM and 2.18 µM | COc1ccccc1N1CCN(Cc2ccc(O)c3ncccc23)CC1 |
| 6.22 µM | Oc1ccc(C2=Nn3c(nnc3-c3ccco3)SC2)cc1O |
| 0.583 µM | CN(C)CCCNc1cc(O)c2ncccc2c1 |
| 71.2 µM | Cc1ccccc1Nc1nnc(SCC(=O)NC(=O)NCc2ccco2)s1 |
| 30.4 µM | CCOc1cc2c(C#N)c(N3CCOCC3)nc(N)c2c(N)n1 |
| 0.897 µM | c1ccc(-c2csc(Nc3nc(-c4ccccn4)nnc3-c3ccccc3)n2)cc1 |
| < 0.5 µM | CN1CCN(c2nc(-c3ccccn3)nnc2-c2ccccc2)CC1 |
| 7.67 µM | CC(C)C1Cc2c(sc3ncnc(NN)c23)CO1 (stereo not drawn) |
| 1.03 µM | OCC1CCN(c2nc(-c3ccccn3)nnc2-c2ccccc2)CC1 |
| 21.7 µM | O=C(N/N=C(\c1ccccc1)c1cccnc1)c1cccc(F)c1 |
| 2.14 µM | Oc1cccc2c(-c3nn[nH]n3)ccnc12 |
| 1.07 µM | Oc1c(CN2CCN(c3ccccc3)CC2)cc(Br)c2cccnc12 |
| < 0.5 µM | c1ccc(-c2nnc(-c3ccccn3)nc2NCc2cccnc2)cc1 |
| 35 µM | CCOc1cc(/C=C2\SC(=N)N(c3nccs3)C2=O)ccc1OCCN1CCOCC1 |

| AC50 | Structure (SMILES) |
| --- | --- |
| 10.2 µM | C/C(=N\NC(=O)Cc1ccc(Cl)cc1)c1ccccn1 |
| 11.2 µM | O=C(CCS(=O)(=O)c1ccccc1)Nc1nc(-c2ccccn2)cs1 |
| 12.9 µM | O=C(Nc1nc(NC(=O)c2ccco2)n(-c2ccccc2)n1)c1ccccc1 |
| 13.5 µM | O=C(N[C@@H]1CC[C@H](CCn2cc(-c3ccccn3)nn2)O[C@@H]1CO)c1cccnc1 |
| 15 µM | COc1ccc(C(=O)Oc2cccc3cccnc23)cc1[N+](=O)[O-] |
| 3.47 µM | Cc1ccccc1NC(=O)CSc1ccc(-c2ccccn2)nn1 |
| 8 µM | CCCOc1ccc(/C=N/Nc2cc(N3CCOCC3)ncn2)c(O)c1 |
| 11.8 µM | O=C(N[C@@H]1CC[C@@H](CCn2cc(-c3ccccn3)nn2)O[C@H]1CO)c1cccnc1 |
| 14.1 µM | O=C(COC(=O)c1cccs1)Nc1nnc(-c2ccccc2)o1 |
| 45.9 µM | O=C(c1ccco1)[C@@H]1[C@@H]2C(=O)N(c3ccccc3)C(=O)[C@@H]2C2c3ccccc3C=CN21 (stereo partly drawn) |
| 41.7 µM | Cc1ccc(NC(=O)CN(C)C(=O)COc2cccc3cccnc23)cc1 |
| 3 µM | O=C(NCCCn1ccnc1)C(=O)NCC1OCCN1S(=O)(=O)c1cc(F)ccc1F (stereo not drawn) |
| 1.05 µM | Clc1cccc(CNc2nc(-c3ccccn3)nnc2-c2ccccc2)c1 |
| 5.67 µM | Oc1c(C(Nc2ccccn2)c2cccnc2)cc(Cl)c2cccnc12 (stereo not drawn) |
| 4.78 µM | O=C(CSc1n[nH]c(-c2ccccn2)n1)Nc1cccc(Cl)c1 |
| 6.45 µM | O=C(Nc1nc(-c2ccccn2)cs1)C12CC3CC(CC(O)(C3)C1)C2 |
| 5.46 µM | O=C(Nc1nc(-c2ccccn2)cs1)C1COc2ccccc2O1 (stereo not drawn) |
| 33.2 µM | OCCN1CCN(C(=S)c2ccc(Cl)c(Cl)c2)CC1 |
| 66.9 µM | COc1cc(-c2nnc(NC(=O)c3ccco3)o2)cc(OC)c1OC |
| 15.8 µM | O=C(Nc1nnc(-c2ccccc2Cl)o1)c1cccnc1 |
| 66.1 µM | O=c1[nH][nH]c(=O)c2nc(Nc3ccccc3)ncc12 |
| 14.6 µM | CCOc1ccc(NC(=O)c2c(NC(=O)CNCCN3CCOCC3)sc3c2CCC3)cc1 |
| 35.4 µM | O=C(CSc1ccc2nnc(-c3ccccn3)n2n1)Nc1ccc(F)cc1F |

| AC50 | Structure (SMILES) |
| --- | --- |
| 46.9 µM | CC1OC(CC(=O)O)CC2=C1C(=O)c1c(O)cccc1C2=O (stereo not drawn) |
| 0.558 µM | Cc1ccc(CNc2nc(-c3ccccn3)nnc2-c2ccccc2)cc1C |
| 15.3 µM | O=S(=O)(N[C@@H]1CC[C@@H](CCn2cc(-c3ccccn3)nn2)O[C@H]1CO)c1cccc(Cl)c1 |
| 19.5 µM | O=C(CSc1cccc2cccnc12)Nc1ccccc1F |
| 0.564 µM | CC(Nc1nc(-c2ccccn2)nnc1-c1ccccc1)c1ccccc1 (stereo not drawn) |
| 7.57 µM | O=C(N[C@@H]1CC[C@H](CCn2cc(-c3ccccn3)nn2)O[C@H]1CO)c1ccncc1 |
| 9.12 µM | Brc1ccc(-c2nn3c(-c4ccccn4)nnc3s2)o1 |
| 4.03 µM | CCN1CCN(C(c2cccnc2)c2cc(Cl)c3cccnc3c2O)CC1 (stereo not drawn) |
| 13.1 µM | CO[C@@H]1CN(C)C(=O)c2ccc(NC(=O)c3ccccn3)cc2OC[C@@H](C)N(C(=O)C2CC2)C[C@H]1C |
| 9.94 µM | O=C(NN=Cc1c(O)ccc2ccccc12)c1ccncc1 |
| 11.5 µM | CC(=O)OC[C@H]1O[C@@H](Sc2cccc3cccnc23)[C@H](OC(C)=O)[C@@H](OC(C)=O)[C@H]1OC(C)=O |
| 25.2 µM | COc1ccc(NC(=O)CSc2c(C)nn(-c3nnc(C)c(=O)[nH]3)c2C)cc1 |
| 1.46 µM | Oc1cc(NCCN2CCOCC2)cc2cccnc12 |
| 2.17 µM | O=C(Nc1nc(-c2ccccn2)cs1)c1ccco1 |
| 25.1 µM | CCCCCC/C=N/Nc1nnc(Cc2ccc(OC)c(OC)c2)c(=O)[nH]1 |
| 1.6 µM | c1ccc(-c2ccc(CNc3nc(-c4ccccn4)nnc3-c3ccccc3)cc2)cc1 |
| 12 µM | NC1=NN=C(N2N=C(c3ccco3)CC2(O)C(F)(F)F)n2ncnc2C1 (stereo not drawn) |
| 26.4 µM | COc1cc(CNCc2ccccn2)ccc1OCC(=O)NC(C)(C)C |
| 12.3 µM | C/C(CC(=O)Nc1ccc(N(C)C)cc1)=N\NC(=O)c1ccccn1 |
| 2.26 µM | Cc1ccc(NC(=O)CSc2n[nH]c(-c3ccccn3)n2)cc1 |
| 43.4 µM | COc1cc(CNCc2ccccn2)ccc1OCc1c(Cl)cccc1Cl |
